{
  "source": "patent US7939541B2",
  "about": "“Intermediates and a process employing the intermediates for the preparation of (3-trifluoromethylsulfonyl)-N-[4-methyl-3-(4-pyridin-3yl-pyrimidin-2ylamino)-phenyl]-benzamide” (Natco Pharma Limited, priority 2004, dated 2011)",
  "key": {"[1]": {"system": "4910 glioma cells", "assay": "In vitro angiogenic assay, 4910 conditioned media on human dermal endothelial cells", "format": "cell-based", "conditions": "4910 cells, with radiation", "procedure": "(§1) The in vitro angiogenesis of 4910, 5310 and U87 glioma cells and MDAMB231 and ZR71 breast cancer cells in the presence of specified concentrations of compounds were determined as follows, cells (2×10^4/well) were seeded in 8-well chamber slides and were treated with various concentrations of test compounds. After a 24 h incubation period, the conditioned media was removed and added to a 4×10^4 human dermal endothelial cell (monolayer in 8-well chamber slides) and the human dermal endothelial cells were allowed to grow for 72 h. Cells were then fixed in 3.7% formaldehyde and stained with H&E and photographed."}, "[2]": {"system": "4910 human glioma xenograft cells", "assay": "Glioma radiation studies, intracranial tumours", "format": "in vivo, nude mice", "procedure": "Nude mice were intracranially implanted with 4910 human glioma xenograft cells (1×10^6 cells) intracranially. Ten days after implantation mice were treated with AN019, AN024 or temozolomide with or without radiation (5 Gy/week). The experiment was terminated at day 40 post implantation."}, "[3]": {"system": "U87 glioma cells", "assay": "In vitro angiogenic assay, U87 conditioned media on human dermal endothelial cells", "format": "cell-based", "conditions": "with radiation", "procedure": "as §1"}, "[4]": {"system": "Baf3 murine leukemia cells M351T", "assay": "Blast cell count in nude mice implanted with Baf3 M351T cells", "format": "in vivo", "conditions": "Baf3M351T; Imatinib 10 mg/kg, AN019 20 mg/kg, AN024 20 mg/kg, oral gavage or ip from day 15; day 42", "excerpt": "(§2) Blood smears were obtained via the tail vein or via the femoral vein every 6th day and blast cells counted and graphically represented.\n(§3) Abdominal swelling and decrease in activity was monitored daily, blood smear taken via the tail vein or the femoral vein every 6th day and H&E stained as per standard protocols. 42 days after implantation, mice were sacrificed and spleens harvested.\n(§4) Blood from tail vein or the femoral vein was taken every 6th day from Baf3 cell implanted mice until day 42.\n(§5) Nude mice were intraperitoneally implanted with Baf3 mutant cells (wt, T315I, M351T or E255K). […] Blood was drawn from the femoral vein or tail vein every 6th day and blast cell count determined and graphically represented."}, "[5]": {"system": "K562 cells", "assay": "Nude mice implanted with K562 cells: spleenic enlargement, Crk expression, leukemia growth index", "format": "in vivo", "excerpt": "Mice were sacrificed after a decrease in percent leukemia growth index (LGI) was observed and spleen harvested.\nControl mice also developed random subcutaneous tumors showing Crk expression, indicative of the presence of K562 cells."}, "[6]": {"system": "ZR71 breast cancer cells", "assay": "In vitro angiogenic assay, ZR-71 conditioned media on human dermal endothelial cells", "format": "cell-based", "conditions": "ZR-71 cells, radiation status not specified", "procedure": "as §1"}, "[7]": {"system": "pAKT and pERK in glioma and breast cancer cells", "assay": "Western blot analysis of pAKT and pERK, cell line not stated", "format": "cell-based", "conditions": "both with and without radiation", "procedure": "(§6) Western blot analysis of 4910, 5310 and U87 glioma cells and MDAMB231 and ZR71 breast cancer cells in the presence of specified concentrations of compounds were assessed as per standard protocols. Cells were treated with AN019, AN024 or Temozolomide at the specified concentrations. 24 h after treatment, cells were collected and cell lysates extracted. Equal quantities of proteins were fractionated by SDS-PAGE. The fractionated proteins were blotted on to nylon membranes and immunoprobed for AKT, ERK and Pi3k. Breast cancer cell protein isolates were additionally immunoprobed for EGFR, ErbB1, ErbB2 and ErbB3."}, "[8]": {"system": "AKT, ERK and Pi3k in ZR71 breast cancer cells", "assay": "Western blot analysis, ZR71", "format": "cell-based", "conditions": "24 h", "procedure": "as §6"}, "[9]": {"system": "K562 luciferase expressing cells", "assay": "Leukemic survival study", "format": "in vivo, nude mice", "excerpt": "K562 luciferase expressing cells were implanted intraperitoneally into nude mice; the mice were scanned using the xenogeny IVIS image station after ip injections of luciferin does determine implantations. Drug treatment was started as in previous studies day 15 after implantation. The animals were given treatment till day 42, after which drug treatment was stopped and survival of the animals determined as per the animal care regulations. […] Drug treatment was withdrawn on day 42 post implantation and survival of animals determined."}, "[10]": {"system": "AKT, ERK and Pi3k in 4910 glioma cells", "assay": "Western blot analysis, 4910", "format": "cell-based, human", "conditions": "24 h", "procedure": "as §6"}, "[11]": {"system": "Baf3 murine leukemia cells E255K", "assay": "Blast cell count in nude mice implanted with Baf3 E255K cells", "format": "in vivo", "conditions": "Baf3E255K (printed E225K); Imatinib 10 mg/kg, AN019 20 mg/kg, AN024 20 mg/kg, oral gavage or ip from day 15; day 42", "excerpt": "as §2, §3, §4, §5"}, "[12]": {"system": "K562 luc human leukemia cells", "assay": "Luciferase expression in nude mice implanted with K562 luc cells, low dose oral administration", "format": "in vivo", "excerpt": "Five mice were used per group and divided into 24 groups+2 control. All groups were implanted with K562 normal/luc cells. Of the 24 groups, 12 were used for luciferase studies whereas the other 12 were used for blood smear count studies."}, "[13]": {"system": "AKT, ERK and Pi3k in U87 glioma cells", "assay": "Western blot analysis, U87", "format": "cell-based", "conditions": "24 h", "procedure": "as §6"}, "[14]": {"system": "BCR-Abl, Crk and phospho Stat5AY^694/699 in K562 cells", "assay": "Western blot analysis of K562 cells treated with AN024", "format": "cell-based, human", "procedure": "Expression levels of BCR-Abl, Crk and phospho Stat5AY^694/699 were determined by western blot analysis in K562 cells treated with various concentrations of AN024 (1, 2.5, 5 or 10 μg/ml) for 12 h.\nK562 cells were treated with 1, 2.5, 5, or 10 μg/ml of AN024. After 12 h, cells were collected and total cell lysates were prepared in extraction buffer containing Tris [0.1 M, pH 7.5], Triton-X114 (1.0%), EDTA (10 mM), aprotinin, and phenylmethylsulphonyl fluoride. […] The membranes were probed for 2 h with antibodies against BCR-Abl, Crk and phospho Stat5AY^694/699 per standard protocols. The membranes were subsequently washed three times with PBS to remove excess primary antibodies, incubated with appropriate HRP conjugated secondary antibodies as required, and then developed according to enhanced chemiluminesence protocol (Amersham, Arlington Heights, Ill.).\nFIG. 1 illustrates results of this testing. K562 cells were treated with various concentrations of AN024 (1-10 μg/ml). Cell lysates were collected and western blot analysis was performed per standard protocols. Expression levels of BCR-Abl, Crk and Stat5AY^694/699 were determined."}, "[15]": {"system": "5310 glioma cells", "assay": "In vitro angiogenic assay, 5310 conditioned media on human dermal endothelial cells", "format": "cell-based", "conditions": "5310 cells", "procedure": "as §1"}},
  "data": [
    {"compound": "Cc1ccc(NC(=O)c2cccc(S(=O)(=O)C(F)(F)F)c2)cc1Nc1nccc(-c2cccnc2)n1", "note": "[AN024, (3-trifluoromethylsulfonyl)-N-[4-methyl-3-(4-pyridin-3yl-pyrimidin-2ylamino)-phenyl]-benzamide]", "values": [
      {"measurement": "inhibition of angiogenesis", "setting": "[1]", "result": "significant inhibition of angiogenesis"},
      {"measurement": "intracranial tumours (size, appearance)", "setting": "[2]; with radiation (5 Gy/week)", "result": "well defined surgically respectable tumours"},
      {"measurement": "intracranial tumours (size, appearance)", "setting": "[2]; without radiation", "result": "well defined and not showing diffuse edges"},
      {"measurement": "inhibition of angiogenesis", "setting": "[3]", "result": "increase in inhibition after radiation"},
      {"measurement": "blast cell count in blood smears", "setting": "[4]", "result": "significant decrease in blast cell count"},
      {"measurement": "leukemia growth index (LGI)", "setting": "[5]; K562 implanted nude mice", "result": "caused the regression of LGI"},
      {"measurement": "Crk expression in paraffin sections of spleen", "setting": "[5]; immuno-probed spleen sections", "result": "only basal level expression of Crk expression comparable to negative control"},
      {"measurement": "Spleenic enlargement", "setting": "[5]; ip injections, visual inspection of harvested spleen", "result": "did not show any spleenic enlargement"},
      {"measurement": "physiological, phenotypic or behavioral abnormality", "setting": "[5]; treated K562 implanted nude mice", "result": "no abnormal physiological, phenotypic or behavioral abnormality"},
      {"measurement": "inhibition of angiogenesis", "setting": "[6]", "result": "complete inhibition of angiogenesis"},
      {"measurement": "pERK levels", "setting": "[7]", "result": "reduction on pERK levels but to a lesser extent than AN019"},
      {"measurement": "AKT levels", "setting": "[8]; ZR71, after radiation", "result": "decrease in AKT expression"},
      {"measurement": "PI3k levels", "setting": "[8]; ZR71, with radiation", "result": "decrease in PI3k levels"},
      {"measurement": "AKT levels", "setting": "[8]; ZR71, without radiation", "result": "did not show any significant change"},
      {"measurement": "blast cell count from blood smears after withdrawal of drug treatment", "setting": "[9]; drug treatment withdrawn on day 42 (FIG. 6C)", "result": "showed effectiveness after withdrawal of drug treatment"},
      {"measurement": "animals showing no signs of leukemia / complete absence of leukemic symptoms", "setting": "[9]; of 10 animals, treatment day 15 to day 42, then withdrawn, AN024 read on day 55", "result": 8, "unit": "animals"},
      {"measurement": "mortality (day post implantation)", "setting": "[9]; treatment day 15 to day 42, then withdrawn", "result": 38, "unit": "days"},
      {"measurement": "AKT levels", "setting": "[10]; 4910, after radiation", "result": "decrease in AKT levels was enhanced after radiation"},
      {"measurement": "AKT levels", "setting": "[10]; 4910, without radiation", "result": "decrease in AKT levels"},
      {"measurement": "blast cell count in blood smears", "setting": "[11]", "result": "significant decrease in blast cell count"},
      {"measurement": "luciferase expression", "setting": "[12]; 1 mg/kg", "result": "did not induce a decrease in luciferase expression"},
      {"measurement": "luciferase expression", "setting": "[12]; 5 mg/kg", "result": "caused a decrease in luciferase expression"},
      {"measurement": "luciferase expression", "setting": "[12]; 10 mg/kg", "result": "caused a decrease in luciferase expression"},
      {"measurement": "luciferase expression", "setting": "[12]; 20 mg/kg", "result": "caused a decrease in luciferase expression"},
      {"measurement": "ERK levels", "setting": "[13]; U87, after radiation", "result": "decrease was enhanced after radiation"},
      {"measurement": "ERK levels", "setting": "[13]; U87, without radiation", "result": "slight decrease in ERK levels"},
      {"measurement": "BCR-Abl, Crk and phospho Stat5AY^694/699 protein levels", "setting": "[14]; K562 cells, 1, 2.5, 5 or 10 μg/ml, 12 h, western blot", "result": "decreased in a dose dependent manner"},
      {"measurement": "BCR-Abl kinase activity", "setting": "[14]; K562 cells, 1-10 μg/ml", "result": "inhibited BCR-Abl kinase activity in a dose dependent manner"},
      {"measurement": "inhibition of angiogenesis", "setting": "[15]; after radiation treatment", "result": "angiogenesis further inhibited"},
      {"measurement": "inhibition of angiogenesis", "setting": "[15]; control conditions (without radiation)", "result": "inhibition of angiogenesis was seen"}
    ]}
  ]
}
